Experimental data reported in US20250092058A1 (priority 2018, published 2025).
Where two headings read alike, the source gives them in different places.

Assays:
PDX14244 and PDX27454 = assay: Pancreatic PDX14244 (left flank) and colorectal PDX27454 (right flank) in the same SCID mice; type: in vivo; conditions: for antitumor activity, 7Q-series (1): oral weekly for 4 times
Procedure: Human xenograft tumors used.
The vehicle is the same aqueous suspension without FL7N-1. Experimental SCID mice were subcutaneously implanted with 30-40 mg individual PDX tumors (isolated from maintenance mice) at the flank area (left side for PDX14244, and right side for PDX27454) of SCID mice. […] The animal model of PDX tumors was orally treated weekly for 3 times as shown with black arrows. […] Thus, FL7N-1 may be a priority candidate to be developed for treatment of children rare disease retinoblastoma.
(§1) The vehicle is the same think aqueous suspension without drug. Experimental SCID mice were subcutaneously implanted with 30-40 mg individual PDX tumors (isolated from maintenance mice) at the flank area (left side for PDX14244, and right side for PDX27454) of SCID mice. […] The animal model of PDX tumors was orally treated weekly for 3 times as shown with black arrows.
as §1, with “for 4” for “for 3”, “times (one cycle/course,” for “times”, “black arrows).” for “black arrows.”
as §1, with “times in two doses due to drug limitation then (as” for “times as”, “black arrows).” for “black arrows.”

UOK151 = tested on: UOK151
Procedure: (§2) MTT assays. […] Viable cells (2500 cells per well) were plated in each well in 96-well plates. After an overnight incubation, cells were treated with and without relevant drugs alone and in combination, respectively, at various concentrations and incubated for 72 hours. MTT, a colorimetric substrate, was added to a final concentration of 0.4 mg/ml to each well. Cells in 96-well plates were further incubated in a 5% CO2 incubator at 37° C. for 4 hours, and then the medium was aspirated. The MTT metabolic product formazan was solubilized by adding 200 ul of DMSO to each well. Absorbance in the relevant wells was measured at 570 nm using an Ultra Microplate Reader (Bio-Tek Instruments). Each experiment was performed at least in triplicate. IC50/EC50 values were calculated from a series of drug dose ranges for each analyzed compound, using GraphPad Prism 6 (GraphPad Software, Inc., La Jolla, CA).
(§3) The inhibition of cell growth and viability in various cancer cell types were tested using MTT assay for references.

H1376 = tested on: H1376
Procedure: as §2, §3

UOK262 = tested on: UOK262
Procedure: as §2, §3

UMUC-3 = tested on: UMUC-3
Procedure: as §2, §3

HCT116 = assay: MTT assay HCT116; type: cell-based, human; conditions: Table 8
Procedure: (§4) MTT assays. […] Each experiment was performed at least in triplicate.

[1] = tested on: HT-3 retinoblastoma xenograft tumors; conditions: for antitumor activity and toxicity profile: oral, one time, 3-4 doses
Procedure: Human HT-3 retinoblastoma xenograft tumors were initially established by subcutaneously injection of 2-5×10^6 HT-3 cells in a volume of 100-200 μL medium. Mouse models of HT-3 xenografts were set up by subcutaneously inoculating 30-40 mg tumor tissue on the flank of SCID mice. Treatment with individual compounds was initiated 7-14 days after the transplanted tumors reached 100-200 mm^3 (designated day 0). […] The individual compounds were formulated in an organic solvent-free with HPPCD as drug carriers in 2% HPMC (hydroxypropyl methylcellulose) and 1% PG (propylene glycol) in saline (a thick aqueous suspension) for oral administration. The vehicle is the same thick aqueous suspension without drug. A. FL7s-3-treated xenograft tumor curve profile (left panel) and body weight profile (right panel) over the experimental period. B. FL7s-4-treated xenograft tumor curve profile (left panel) and body weight profile (right panel) over the experimental period. C. FL7s-7-treated xenograft tumor curve profile (left panel) and body weight profile (right panel) over the experimental period.
(§5) Human xenograft tumors used. In this invention disclose, human SW620 (colorectal), HT29 (colorectal) and HT-3 (retinoblastoma) cancer cell line-established xenograft tumors were used. Human tumor cell line-derived xenograft tumors are initially established by subcutaneously injecting 2-5×10^6 cultured cancer cells in a volume of 100-150 p L medium into the flank area of severe combined immunodeficiency (SCID) mice. The derived tumors are then passed a couple of generations in mice by transplanting 30-50 mg non-necrotic tumor mass via a trocar for experiments or maintenance. […] PDX tumors were originally established on severe Combined Immunodeficiency (SCID) mice from pancreatic and colorectal cancer patient tumor tissues obtained from metastatic sites of the disease in the clinic.
To these three novel compounds, we performed in vivo animal model studies to evaluate their antitumor activity and toxicity using the HT-3 retinoblastoma xenograft tumor models. In this experiment, we still took advantage of the newly developed formulation for oral administration of compounds.

RT4 = assay: MTT assay RT4; type: cell-based; conditions: Table 5 lower part; RT4 bladder cancer
Procedure: as §2, §3

T24 = assay: MTT assay T24; type: cell-based; conditions: Table 5 lower part; T24 bladder cancer
Procedure: as §2, §3

HT-3 = assay: MTT assay HT-3; type: cell-based, human; conditions: Table 5 lower part
Procedure: as §2, §3

FaDu = assay: MTT assay FaDu; type: cell-based; conditions: Table 5 lower part; FaDu head-and-neck cancer
Procedure: as §2, §3

A2008 = assay: MTT assay A2008; type: cell-based
Procedure: as §2, §3

A549 = assay: MTT assay A549; type: cell-based, human; conditions: Table 9
Procedure: as §4

SW620 xenograft tumors = conditions: oral weekly for 1-2 times
Text: as §5
Human SW620 xenograft tumors were initially established by subcutaneously injection of 2-5×10^6 SW620 cells in a volume of 100-150 μL medium. Mouse models of SW620 xenografts were set up by subcutaneously inoculating 30-40 mg tumor tissue (isolated from tumor maintenance SCID mice) on the flank of SCID mice. Treatment with individual compounds was initiated 7-14 days after the transplanted tumors reached 100-200 mm^3 (designated day 0). The treatment schedule is weekly for 1-2 times in a series of dose levels based on the available drug amounts then. The individual compounds were formulated in an organic solvent-free with HPβCD in 2% HPMC (hydroxypropyl methylcellulose) and 1% PG (propylene glycol) in saline (a thick aqueous suspension) for oral administration. The vehicle is the same thick aqueous suspension without drug.

PDX10978 = assay: Pancreatic cancer PDX10978 in SCID mice; type: in vivo; conditions: FL118 0.75 mg/kg or gemcitabine 60 mg/kg ip qw×4
Procedure: Human pancreatic cancer patient-derived xenograft (PDX) tumor mouse model and treatment. Experiments followed the IACUC-approved mouse protocol. Briefly, human PDAC PDX tumors maintained on SCID mice were isolated, and a piece of non-necrotic tumor tissues (30-40 mg) were subcutaneously transplanted into the flank area of female SCID mice. […] In this study, we used the timesaving intraperitoneal (ip) route for drug administration. […] The formulation process was described in detail in our previous patent (PCT/US2011/058558). […] Tumor length (L) and width (W) were measured using digital vernier calipers 1-3 times per week until the end of experimental studies. The tumor volume (v) was calculated using the formula: v=0.5 (L×W^2). Then the tumor size was divided by the day 0 tumor size as percentage tumor size versus day 0. The mean tumor volume ± standard deviation (SD) at each time point was derived from 5 mice in each group. The tumor curves were made using Sigma Plot software.
It has been recently documented that pancreatic cancer PDXs retain active paracrine/Hedgehog signaling, and desmoplasia is active in PDX tumor mouse models.

[2] = oral one time, 5, 10 and 15 mg/kg
[3] = Table 5 lower part, UOK151 kidney cancer
[4] = Table 5 lower part, H1376 bladder cancer
[5] = Table 5 lower part, UOK262 kidney cancer
[6] = Table 5 lower part, UMUC-3 bladder cancer
[7] = Table 5 lower part, A2008 ovarian cancer

Structure (SMILES): CC[C@@]1(O)C(=O)OCc2c1cc1n(c2=O)Cc2c-1nc1cc3c(cc1c2CCN1CCOCC1)OCO3 [Compound 7N1, 20 (S)-7-morpholinylethyl-10,11-methylenedioxy-camptothecin]
- antitumor activity (PDX14244 and PDX27454; oral weekly for 3 times): very good
- IC50/EC50 (UOK151; Table 8, UOK151): 42.8 nM
- IC50/EC50 (H1376; Table 8, H1376): >500 nM
- IC50/EC50 (UOK262; Table 8, UOK262): 38 nM
- IC50/EC50 (UMUC-3; Table 8, UMUC-3): 2.05 nM
- IC50/EC50 (HCT116): 11.6 nM
- antitumor activity [1, 2]: exceptional antitumor activity in all three doses used
- toxicity (mouse body weight loss) [1, 2]: without showing toxicity
- antitumor activity and toxicity profile [1]: great antitumor activity and favorable toxicity profiles

Structure (SMILES): CC[C@@]1(O)C(=O)OCc2c1cc1n(c2=O)Cc2c-1nc1cc3c(cc1c2-c1ccc(OC)cc1)OCO3 [7Q 9]
- IC50/EC50 (RT4): 3.37 nM
- antitumor activity, 7Q-series (1) (PDX14244 and PDX27454): much higher antitumor activity than the other compounds in this 7Q-series (1)
- IC50/EC50 (UOK151; [3]): 50 nM
- IC50/EC50 (H1376; [4]): >500 nM
- IC50/EC50 (UOK262; [5]): 32 nM
- IC50/EC50 (UMUC-3; [6]): 0.35 nM
- IC50/EC50 (T24): 0.32 nM

Structure (SMILES): CC[C@@]1(O)C(=O)OCc2c1cc1n(c2=O)Cc2cc3c(CN(C)C)c(O)ccc3nc2-1 [Topotecan, reference compound]
- IC50/EC50 (RT4): 96.4 nM
- IC50/EC50 (HT-3; HT-3 cervical carcinoma): 83.42 nM
- IC50/EC50 (FaDu): 26.63 nM
- IC50/EC50 (A2008; [7]): 46.1 nM
- IC50/EC50 (UOK151; [3]): >200 nM
- IC50/EC50 (UOK151; Table 8, UOK151): >200 nM
- IC50/EC50 (UOK151; Table 10, UOK151): >200 nM
- IC50/EC50 (H1376; [4]): >500 nM
- IC50/EC50 (H1376; Table 8, H1376): >500 nM
- IC50/EC50 (UOK262; [5]): >200 nM
- IC50/EC50 (UOK262; Table 8, UOK262): >200 nM
- IC50/EC50 (UOK262; Table 10, UOK262): >200 nM
- IC50/EC50 (UMUC-3; [6]): 52.8 nM
- IC50/EC50 (UMUC-3; Table 8, UMUC-3): 52.8 nM
- IC50/EC50 (T24): 37.2 nM

Structure (SMILES): CC[C@@]1(O)C(=O)OCc2c1cc1n(c2=O)Cc2c-1nc1cc3c(cc1c2-c1cccnc1)OCO3 [W-b2]
- IC50/EC50 (A2008; Table 9, A2008): 4.6 nM
- IC50/EC50 (A549): 2.24 nM
- antitumor activity (SW620 xenograft tumors): much higher antitumor activity than the other compounds in this Wb-series

Structure (SMILES): CC[C@@]1(O)C(=O)OCc2c1cc1n(c2=O)Cc2c-1nc1cc3c(cc1c2CCN1CCCCC1C)OCO3 (stereo partly drawn) [Compound 7N2]
- IC50/EC50 (HCT116): 25.62 nM
- antitumor activity and toxicity profile [1]: great antitumor activity and favorable toxicity profiles

Structure (SMILES): CC[C@@]1(O)C(=O)OCc2c1cc1n(c2=O)Cc2c-1nc1cc3c(cc1c2-c1cccs1)OCO3 [W-b6]
- IC50/EC50 (A2008; Table 9, A2008): 11.1 nM
- IC50/EC50 (A549): 1.2 nM
- antitumor activity (SW620 xenograft tumors): much higher antitumor activity than the other compounds in this Wb-series

Structure (SMILES): CCc1ccc(-c2c3c(nc4cc5c(cc24)OCO5)-c2cc4c(c(=O)n2C3)COC(=O)[C@]4(O)CC)cc1 [7Q 6]
- IC50/EC50 (RT4): 1.51 nM
- IC50/EC50 (HT-3; HT-3): 3.11 nM
- antitumor activity, 7Q-series (1) (PDX14244 and PDX27454): much higher antitumor activity than the other compounds in this 7Q-series (1)
- IC50/EC50 (FaDu): 0.85 nM
- IC50/EC50 (A2008; [7]): 1.34 nM
- IC50/EC50 (H1376; [4]): 386 nM
- IC50/EC50 (UMUC-3; [6]): 0.4 nM
- IC50/EC50 (T24): 0.19 nM

Structure (SMILES): Nc1ccn([C@@H]2O[C@H](CO)[C@@H](O)C2(F)F)c(=O)n1 [gemcitabine, reference compound]
- antitumor efficacy, single agent (PDX10978): only delayed tumor growth

Structure (SMILES): CC[C@@]1(O)C(=O)OCc2c1cc1n(c2=O)Cc2c-1nc1cc3c(cc1c2-c1ccoc1)OCO3 [W-b3]
- IC50/EC50 (A2008; Table 9, A2008): 16.15 nM
- IC50/EC50 (A549): 0.92 nM
- antitumor activity (SW620 xenograft tumors): much higher antitumor activity than the other compounds in this Wb-series

Structure (SMILES): CC[C@@]1(O)C(=O)OCc2c1cc1n(c2=O)Cc2c-1nc1cc3c(cc1c2-c1cc(OC)cc(OC)c1)OCO3 [7Q 24]
- IC50/EC50 (RT4): 1.44 nM
- IC50/EC50 (HT-3; HT-3): 3.59 nM
- antitumor activity, 7Q-series (1) (PDX14244 and PDX27454): much higher antitumor activity than the other compounds in this 7Q-series (1)
- IC50/EC50 (FaDu): 0.68 nM
- IC50/EC50 (A2008; [7]): 1.95 nM
- IC50/EC50 (H1376; [4]): 246 nM
- IC50/EC50 (UMUC-3; [6]): 0.21 nM
- IC50/EC50 (T24): 0.08 nM

Structure (SMILES): CC[C@@]1(O)C(=O)OCc2c1cc1n(c2=O)Cc2c-1nc1cc3c(cc1c2CCN1CCSCC1)OCO3 [Compound 7N3, 20 (S)-7-thiomorpholinylethyl-10,11-methylenedioxy-camptothecin]
- IC50/EC50 (HCT116): 171.9 nM
- antitumor activity and toxicity profile [1]: great antitumor activity and favorable toxicity profiles

Structure (SMILES): CC[C@@]1(O)C(=O)OCc2c1cc1n(c2=O)Cc2c-1nc1cc3c(cc1c2-c1cc(C(F)(F)F)cc(C(F)(F)F)c1)OCO3 [W-b10/Hx7]
- antitumor activity and toxicity, Hx-series (PDX14244 and PDX27454; oral weekly for 3 times): much higher antitumor activity with favorable toxicity
- IC50/EC50 (A2008; Table 9, A2008): 7.31 nM
- IC50/EC50 (UOK151; Table 10, UOK151): >500 nM
- IC50/EC50 (UOK262; Table 10, UOK262): 33.4 nM
- IC50/EC50 (A549): 5.29 nM
